Columns and labels:
tardive dyskinesia [1] = settings: most studies; cited from earlier work
[2] = tested on: orofacial movements caused by haloperidol; settings: one-day and two-week trials; cited from earlier work
[3] = tested on: acute dystonias induced by antipsychotic medication; settings: monkeys; cited from earlier work
tardive dyskinesia [4] = test: Case reports: oral carvedilol in hospitalized patients with tardive dyskinesia; format: in vivo, human
Experimental: (§1) Clozapine is recognized as a drug that, because of dangerous side-effects, is reserved as the last resort after the failure of long courses and high doses of several other antipsychotic medications. […] Carvedilol 6.25 mg once daily was then started. On 11/15 the carvedilol dose was increased to 6.25 mg twice daily. […] On the ninth hospital day carvedilol was discontinued.
On the first hospital day carvedilol 3.125 mg twice daily was started. […] Carvedilol was then restarted. […] Carvedilol was continued for a month.
This person was admitted to the hospital for the treatment of an anxiety disorder whose symptoms included insomnia, nightmares, unhappiness, suicidality, continual worry, and panic attacks. They had previously taken the antidepressants nortriptyline and fluoxetine, and was taking nefazodone 375 mg/day for one year. They were also taking the antihypertensive medication benazepril 40 mg/day, and the sleeping medication zaleplon 10 mg/day. […] They then received carvedilol 3.125 mg twice daily.
This person was in the hospital because of difficulty swallowing. […] This aspiration put them at risk of aspiration pneumonia, which is disabling and can be life-threatening. For them to receive water and food a tube was surgically inserted between their stomach and the outside of their abdomen. […] They then received carvedilol 6.25 mg twice daily.

tardive dystonia = test: Case report: oral carvedilol, tardive dystonia and swallowing difficulty; format: in vivo, human; settings: Case #4; carvedilol 6.25 mg twice daily; 28 hours, after three doses
Excerpt: This person was in the hospital because of difficulty swallowing. This began about a year prior to hospitalization while taking haloperidol and lithium medications. Increasingly they would cough while eating or drinking. […] The swallowing difficulty worsened despite replacement of lithium and haloperidol with divalproex and olanzapine. […] This aspiration put them at risk of aspiration pneumonia, which is disabling and can be life-threatening. For them to receive water and food a tube was surgically inserted between their stomach and the outside of their abdomen. […] When they tried to drink water from a cup these movements obviously interfered with swallowing. […] On the Abnormal Involuntary Movement SCALE (AIMS) they scored 13. They then received carvedilol 6.25 mg twice daily. Twenty-eight hours later, after three doses, their swallowing was rated by the Speech Therapy Department as 70% improved.

tardive akathisia = test: Case reports: oral carvedilol, agitated movements of tardive akathisia; format: in vivo, human
Excerpt: These movements were consistent with tardive dyskinesia. […] They mentioned having been told by several psychiatrists that […] has tardive dyskinesia, and that […]'d previously taken numerous different antipsychotic drugs, including risperidone, olanzapine, and clozapine. Clozapine is recognized as a drug that, because of dangerous side-effects, is reserved as the last resort after the failure of long courses and high doses of several other antipsychotic medications. On the third hospital day, a Friday (Nov. 13, 1998), the tongue protrusion movements continued unchanged. Carvedilol 6.25 mg once daily was then started. On 11/15 the carvedilol dose was increased to 6.25 mg twice daily. When next evaluated, at 9am on Monday 11/16, the tongue protrusions were absent. The absence of dyskinesia persisted despite the patient's repeated expressions of anxiety and anxious thoughts. […] Agitation then decreased, a sign of improvement in tardive akathisia. On the ninth hospital day carvedilol was discontinued. The patient was discharged on the 15th hospital day, without recurrence of any tongue protrusion, and without observable agitation. […] They spontaneously complained that children in their neighborhood mocked them and called them a witch because of the tongue movements. They stated that […] avoids leaving the house because of harassment by the children. […]

[5] = cited from earlier work
[6] = cited from earlier work; remark: listed apart in the source
[7] = Side effects of carvedilol in patients; format: in vivo, human
Experimental: as §1

[8] = Case #3, carvedilol 3.125 mg twice daily, 24 hours, after two doses

For vitamin E, the “improvement of TD” value (tardive dyskinesia [1]) is listed as “no significant improvement”.
For `CC(C)NCC(O)COc1cccc2ccccc12` (stereo not drawn) [propranolol], the “orofacial movements caused by haloperidol” value [2] is given as “did not diminish”.
In the case of `C#CCN(C)Cc1ccccc1` [pargyline], the “acute dystonias induced by antipsychotic medication” value [3] is listed as “reduced”.
In the case of `COc1ccccc1OCCNCC(O)COc1cccc2[nH]c3ccccc3c12` (racemic) [carvedilol, ±-1-(carbazol-4-yloxy)-3-[[2-(o-methyoxyphenoxy)ethyl]amino]-2-propanol], the tongue protrusions (tardive dyskinesia [4]; Case #1, carvedilol 6.25 mg once daily, then twice daily, evaluated after 3 days) is reported as “absent”, the tongue protrusions (tardive dyskinesia [4]; Case #2, carvedilol 3.125 mg twice daily, next day) is reported as “no extensions of the tongue out of the mouth occurred” and the “tongue protrusions after carvedilol restarted” value (tardive dyskinesia [4]; Case #2, rehospitalized, carvedilol restarted, beginning on the next day) is reported as “no longer seen”. For the same molecule, the chewing movements (tardive dyskinesia [4]; [8]) was “gone”, the “lip and tongue movements” value (tardive dyskinesia [4]; [8]) was “in normal range” and the “AIMS score (Abnormal Involuntary Movement Scale)” value (tardive dyskinesia [4]; Case #3, carvedilol 3.125 mg twice daily, 24 hours, after two doses, score before treatment 11) was 6. For the same molecule, the tongue dyskinesia (tardive dyskinesia [4]; Case #4, carvedilol 6.25 mg twice daily, 28 hours, after three doses) was “decreased from mild to marginal”, the “AIMS score (Abnormal Involuntary Movement Scale)” value (tardive dyskinesia [4]; Case #4, carvedilol 6.25 mg twice daily, 28 hours, after three doses, score before treatment 13) was 8 and the facial dystonia (tardive dystonia) was “disappeared”. The neck dystonia (tardive dystonia) was “decreased from moderate to mild”, the “swallowing improvement rated by Speech Therapy Department” value (tardive dystonia) was 70% and the “agitation (sign of tardive akathisia)” value (tardive akathisia; Case #1, carvedilol 6.25 mg in the morning and 12.5 mg at bedtime) was “decreased”. For the same molecule, the “agitated movements consistent with tardive akathisia” value (tardive akathisia; Case #2, at discharge after one week of carvedilol) was “no agitated movements”, the average elimination half-life ([5]; from the human body) was “about 8 hours” and the absorption ([5]; taken by mouth) was “rapid and complete”. For the same molecule, the “in vitro antioxidant activity” value [6] was “exceptionally potent”, the faintness or bradycardia ([7]; Case #1, carvedilol 6.25 mg twice daily) was “lack of any faintness or bradycardia” and the side effects ([7]; usually effective doses to treat TD) was “non-existent or mild”.

From patent US6365618B1, “Administration of carvedilol to mitigate tardive movement disorders, psychosis, mania, and depression” (priority 2000, dated 2002)
